Data on 54 compounds can be found in ChEMBL document CHEMBL2375327, “Carbonic anhydrase inhibitors: inhibition of the β-class enzyme from the pathogenic yeast Candida glabrata with sulfonamides, sulfamates and sulfamides” (Bioorg Med Chem Lett, 2013).

One assay concerns the target Carbonic anhydrase 2 (Homo sapiens, UniProt P00918). The assay is described as follows: Inhibition of human carbonic anhydrase-2 preincubated for 15 mins by stopped-flow CO2 hydrase assay.
For assay [1], the target named is T1, Carbonic anhydrase (Candida glabrata CBS 138, UniProt Q6FTL6).
T1 sequence (Q6FTL6 whole entry): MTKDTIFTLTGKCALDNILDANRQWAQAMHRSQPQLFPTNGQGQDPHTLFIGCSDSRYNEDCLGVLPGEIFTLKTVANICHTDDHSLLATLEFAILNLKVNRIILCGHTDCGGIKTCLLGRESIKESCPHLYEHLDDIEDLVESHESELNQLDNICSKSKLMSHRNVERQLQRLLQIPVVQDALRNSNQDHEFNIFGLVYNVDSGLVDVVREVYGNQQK
The arrangement: species or system Nakaseomyces glabratus.

Assay [2] deals with T2, Carbonic anhydrase (Candida albicans (strain SC5314 / ATCC MYA-2876) (Yeast), UniProt Q5AJ71).
T2 sequence (Q5AJ71 whole entry): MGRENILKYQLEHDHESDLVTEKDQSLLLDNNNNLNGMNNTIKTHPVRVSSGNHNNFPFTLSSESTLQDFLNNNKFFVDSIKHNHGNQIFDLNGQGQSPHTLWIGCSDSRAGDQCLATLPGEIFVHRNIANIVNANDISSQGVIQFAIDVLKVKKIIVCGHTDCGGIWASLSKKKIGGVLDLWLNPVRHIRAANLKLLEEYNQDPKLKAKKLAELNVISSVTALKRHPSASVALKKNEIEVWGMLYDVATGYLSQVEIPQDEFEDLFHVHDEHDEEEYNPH

The nature of assay [3]: Selectivity ratio of Ki for human carbonic anhydrase-2 to Ki for recombinant full length Candida glabrata NCE103.

By Ki is commonly meant a measure of affinity in units of concentration, obtained from inhibition or displacement. In the case of `NS(=O)(=O)c1ccc(NC(=O)NCCc2ccccc2)cc1`, the inhibition constant Ki was determined as 660 nM at Carbonic anhydrase 2, 56 nM on Carbonic anhydrase [1] (read-out: Ki) and 124 nM at Carbonic anhydrase [2].

As to `NS(=O)(=O)Nc1ccc(NC(=O)Nc2ccc(Cl)cc2)cc1`, the results for the Ki at Carbonic anhydrase [1] (read-out: Ki) and on Carbonic anhydrase [2] were 5.5 nM and 102 nM, respectively. For the same compound, in assay [3], the Ratio Ki came out at 57.

In the case of `NS(=O)(=O)c1nnc(-c2ccccc2Cl)s1`, the Ki at Carbonic anhydrase [1] (read-out: Ki) was 420 nM.

As for `NS(=O)(=O)Oc1ccc(NC(=O)Nc2c(F)cc(F)cc2Br)cc1`, the Ki on Carbonic anhydrase [1] (read-out: Ki) turned out to be 5 nM; on Carbonic anhydrase [2], 84 nM.

For the compound `NS(=O)(=O)c1ccc(NC(=O)Nc2ccc(Br)cc2)cc1`, the Ki at Carbonic anhydrase [1] (read-out: Ki) stood at 5.4 nM.

`NS(=O)(=O)c1nnc(NS(=O)(=O)c2ccccc2)s1` [BENZOLAMIDE]: at Carbonic anhydrase [1] (read-out: Ki), the Ki was found to be 952 nM.

For the compound `N#Cc1ccccc1NC(=O)Nc1ccc(OS(N)(=O)=O)cc1`, the Ki at Carbonic anhydrase [1] (read-out: Ki) was found to be 89 nM; on Carbonic anhydrase [2], 156 nM.

Take `CC1(C)O[C@@H]2[C@@H](CO[C@@]3(COS(N)(=O)=O)OC(C)(C)O[C@@H]23)O1` [TOPIRAMATE]: the Ki at Carbonic anhydrase [1] (read-out: Ki) is 110 nM.

With `Nc1ccc(S(N)(=O)=O)cc1F`, the Ki on Carbonic anhydrase [1] (read-out: Ki) stood at 98 nM.

On to `NS(=O)(=O)Nc1ccc(NC(=O)NCCc2ccccc2)cc1`, for which the Ki on Carbonic anhydrase [1] (read-out: Ki) was 15.1 nM; at Carbonic anhydrase [2], 130 nM.

Regarding `NS(=O)(=O)Oc1ccc(NC(=O)NCc2ccccc2)cc1`, the Ki at Carbonic anhydrase 2 came to 274 nM; at Carbonic anhydrase [1] (read-out: Ki) it was 8.4 nM; on Carbonic anhydrase [2], 137 nM.

On to `NS(=O)(=O)Oc1ccc(NC(=O)NCCc2ccccc2)cc1`, for which the Ki was determined as 7.5 nM on Carbonic anhydrase [1] (read-out: Ki) and 133 nM on Carbonic anhydrase [2].

For `Nc1ccc(S(=O)(=O)NCCc2ccc(S(N)(=O)=O)cc2)cc1`, the Ki at Carbonic anhydrase [1] (read-out: Ki) turned out to be 98 nM.

As to `Nc1ccc(S(=O)(=O)Nc2nnc(S(N)(=O)=O)s2)cc1`, at Carbonic anhydrase [1] (read-out: Ki), the Ki came to 106 nM.

For the compound `Nc1ccc(S(N)(=O)=O)cc1Cl`, the Ki at Carbonic anhydrase [1] (read-out: Ki) is 97 nM.

For the compound `NS(=O)(=O)Oc1ccc(NC(=O)Nc2ccc(C(F)(F)F)c(C(F)(F)F)c2C(F)(F)F)cc1`, the Ki on Carbonic anhydrase [1] (read-out: Ki) was 5.8 nM; at Carbonic anhydrase [2], 76 nM.

Regarding `NS(=O)(=O)Nc1ccc(NC(=O)Nc2cccc([N+](=O)[O-])c2)cc1`, the Ki turned out to be 4.1 nM on Carbonic anhydrase [1] (read-out: Ki) and 109 nM on Carbonic anhydrase [2].

For `Nc1nnc(S(N)(=O)=O)s1`, the Ki at Carbonic anhydrase [1] (read-out: Ki) turned out to be 95 nM.

For `CCOc1ccc2nc(S(N)(=O)=O)sc2c1` [ETHOXZOLAMIDE], the Ki on Carbonic anhydrase [1] (read-out: Ki) came to 3130 nM.

With `Cc1ccc(S(N)(=O)=O)cc1` [P-TOLUENESULFONAMIDE], the Ki on Carbonic anhydrase [1] (read-out: Ki) is 846 nM.

As to `Nc1cc(C(F)(F)F)c(S(N)(=O)=O)cc1S(N)(=O)=O`, the inhibition constant Ki at Carbonic anhydrase [1] (read-out: Ki) was 97 nM.

With `CCCCOc1ccc(NC(=O)Nc2ccc(NS(N)(=O)=O)cc2)cc1`, the results for the Ki on Carbonic anhydrase [1] (read-out: Ki) and on Carbonic anhydrase [2] were 13.9 nM and 135 nM, respectively.

For the compound `NCc1ccc(S(N)(=O)=O)cc1` [MAFENIDE], the Ki on Carbonic anhydrase [1] (read-out: Ki) worked out at 865 nM.

As for `NS(=O)(=O)c1ccc(C(=O)O)cc1` [CARZENIDE], the Ki on Carbonic anhydrase [1] (read-out: Ki) was 53 nM.

As to `NS(=O)(=O)c1ccc(CCO)cc1`, the Ki on Carbonic anhydrase [1] (read-out: Ki) was 48 nM.

As to `NS(=O)(=O)Oc1ccc(NC(=O)Nc2ccc3c(c2)Cc2ccccc2-3)cc1`, the Ki on Carbonic anhydrase [1] (read-out: Ki) was determined as 115 nM; on Carbonic anhydrase [2], 76 nM.

For the compound `Nc1nccc(Nc2ccc(S(N)(=O)=O)cc2)n1`, at Carbonic anhydrase [1] (read-out: Ki), the Ki turned out to be 83 nM.

As to `NS(=O)(=O)c1ccc(NC(=O)NCc2ccccc2)cc1`, at Carbonic anhydrase [1] (read-out: Ki), the Ki amounted to 81 nM.

Regarding `NS(=O)(=O)Nc1ccc(NC(=O)NCc2ccco2)cc1`, the Ki at Carbonic anhydrase [1] (read-out: Ki) amounted to 24.1 nM; at Carbonic anhydrase [2] it was 58 nM.

On to `NCCc1ccc(S(N)(=O)=O)cc1`, for which, at Carbonic anhydrase [1] (read-out: Ki), the Ki came out at 550 nM.

Consider `NS(=O)(=O)Oc1ccc(NC(=O)Nc2ccc(Cl)cc2)cc1`, for which the Ki came to 9.4 nM at Carbonic anhydrase [1] (read-out: Ki) and 505 nM on Carbonic anhydrase [2].

Turning to `NS(=O)(=O)c1ccc(NC(=O)Nc2ccccc2)cc1`, the Ki at Carbonic anhydrase [1] (read-out: Ki) is 73 nM.

On to `CCN[C@H]1CN(CCCOC)S(=O)(=O)c2sc(S(N)(=O)=O)cc21` [BRINZOLAMIDE], for which the inhibitory constant (Ki) at Carbonic anhydrase [1] (read-out: Ki) came out at 4350 nM.

In the case of `Cc1cc(C)cc(NC(=O)Nc2ccc(NS(N)(=O)=O)cc2)c1`, the Ki on Carbonic anhydrase [1] (read-out: Ki) stood at 8.5 nM; at Carbonic anhydrase [2] it was 139 nM.

For the compound `Nc1ccc(S(N)(=O)=O)cc1` [SULFANILAMIDE], the Ki at Carbonic anhydrase [1] (read-out: Ki) came out at 8010 nM.

For `Nc1ccc(S(N)(=O)=O)cc1Br`, the Ki at Carbonic anhydrase [1] (read-out: Ki) stood at 109 nM.

In the case of `NS(=O)(=O)c1ccc(CO)cc1`, the Ki at Carbonic anhydrase [1] (read-out: Ki) came out at 61 nM.

With `NS(=O)(=O)c1ccc(NC(=O)Nc2ccc(Cl)cc2)cc1`, the Ki at Carbonic anhydrase [1] (read-out: Ki) stood at 7 nM.

Turning to `NS(=O)(=O)Oc1ccc(NC(=O)Nc2cccc3ccccc23)cc1`, the Ki on Carbonic anhydrase [1] (read-out: Ki) is 89 nM; at Carbonic anhydrase [2], 1430 nM.

For `Cn1nc(S(N)(=O)=O)sc1=N`, the Ki at Carbonic anhydrase [1] (read-out: Ki) was 786 nM.

On to `NS(=O)(=O)c1ccc(NC(=O)Nc2cccc([N+](=O)[O-])c2)cc1`, for which the Ki on Carbonic anhydrase [1] (read-out: Ki) is 6.1 nM.

Take `Nc1ccc(S(=O)(=O)NCc2ccc(S(N)(=O)=O)cc2)cc1`: on Carbonic anhydrase [1] (read-out: Ki), the Ki came out at 108 nM.

With `Cc1ccc(-c2cc(C(F)(F)F)nn2-c2ccc(S(N)(=O)=O)cc2)cc1` [CELECOXIB], the Ki on Carbonic anhydrase [1] (read-out: Ki) turned out to be 116 nM.

As for `Nc1cc(Cl)c(S(N)(=O)=O)cc1S(N)(=O)=O`, the Ki on Carbonic anhydrase [1] (read-out: Ki) came to 86 nM.

Turning to `NS(=O)(=O)Nc1ccc(NC(=O)Nc2ccccc2-c2ccccc2)cc1`, the Ki on Carbonic anhydrase [1] (read-out: Ki) was 6.7 nM; on Carbonic anhydrase [2] it was 72 nM.

For the compound `NS(=O)(=O)c1ccc(S(=O)(=O)Nc2cccc3c(Cl)c[nH]c23)cc1`, the Ki at Carbonic anhydrase [1] (read-out: Ki) was found to be 94 nM.

Regarding `NS(=O)(=O)Nc1ccc(NC(=O)NC2CCCCC2)cc1`, the Ki at Carbonic anhydrase [1] (read-out: Ki) came out at 80.1 nM; at Carbonic anhydrase [2] it was 134 nM.

As for `NS(=O)(=O)Oc1ccc(NC(=O)Nc2ccc([N+](=O)[O-])cc2)cc1`, the Ki at Carbonic anhydrase [1] (read-out: Ki) was found to be 6.4 nM; on Carbonic anhydrase [2] it was 106 nM.

Regarding `NS(=O)(=O)Oc1ccc(NC(=O)Nc2cccc(Cl)c2)cc1`, the Ki at Carbonic anhydrase [1] (read-out: Ki) was found to be 89 nM; at Carbonic anhydrase [2], 124 nM.

For the compound `Cc1onc(-c2ccccc2)c1-c1ccc(S(N)(=O)=O)cc1` [VALDECOXIB], the Ki on Carbonic anhydrase [1] (read-out: Ki) is 97 nM.

Turning to `NS(=O)(=O)Nc1ccc(NC(=O)NCc2ccccc2)cc1`, the Ki at Carbonic anhydrase [1] (read-out: Ki) is 24.3 nM; at Carbonic anhydrase [2], 146 nM.

For `NS(=O)(=O)Oc1ccc(NC(=O)Nc2ccccc2)cc1`, the inhibition constant Ki on Carbonic anhydrase [1] (read-out: Ki) is 9.6 nM.

With `CC(C)c1ccccc1NC(=O)Nc1ccc(NS(N)(=O)=O)cc1`, the values for the Ki at Carbonic anhydrase [1] (read-out: Ki) and at Carbonic anhydrase [2] were 33.8 nM and 55 nM, respectively.

On to `Nc1ccc(S(N)(=O)=O)cc1I`, for which, at Carbonic anhydrase [1], the affinity, expressed as Ki, was 128 nM.
